The values below come from ChEMBL document CHEMBL2146393, “Synthesis and antiviral activity of 4,6-disubstituted pyrimido[4,5-b]indole ribonucleosides” (Bioorg Med Chem, 2012).

Structures are written as SMILES. Activity calls are given as the source filed them. The calls are words filed in the database; no cut-off is given here. Bounds are passed on as bounds.

Series [1] deals with HeLa. Kind of series: Cytotoxic activity against human HeLa cells. The format is cell-based.
The subject of series [2] is HL-60. Kind of series: Cytotoxic activity against human HL60 cells. The format is cell-based.
Series [3] in a line: Cytotoxicity against human HepG2 cells after 96 hrs by CCK8 assay. Type of series: cell-based.
For another series, the system named is THP-1. Kind of series: Cytotoxicity against human THP1 cells after 96 hrs by CCK8 assay. The format is cell-based. The note with it: THP-1, 96 h.
The test system of another series is dengue virus type 2. Kind of series: Antiviral activity against Dengue virus 2 NGC infected in human HuH7-Ehr2 cells after 48 hrs by luciferase reporter gene assay. The settings on record: Huh-7, 48 h. The format is functional, organism-based.
In the next series the test system is Hepatitis C virus. Kind of series: Antiviral activity against Hepatitis C virus. The format is functional, organism-based. The settings on record: Hepacivirus hominis.
Series [4] deals with HeLa. Kind of series: Cytostatic activity against human HeLa cells. The format is cell-based.
The test system of series [5] is CCRF-CEM. Kind of series: Cytotoxic activity against human CCRF-CEM cells. The format is cell-based.
For series [6], the system named is HL-60. Kind of series: Cytostatic activity against human HL60 cells. The format is cell-based.
In series [7] the test system is CCRF-CEM. Kind of series: Cytostatic activity against human CCRF-CEM cells. The format is cell-based.

In the case of `OC[C@H]1O[C@@H](n2c3ccccc3c3c(-c4ccco4)ncnc32)[C@H](O)[C@@H]1O`, the Activity entry in the series on HeLa [1], in the series with HL-60 [2], in the series on HeLa [4], with CCRF-CEM [5], in the series on HL-60 [6] and in the series on CCRF-CEM [7] was “Non-toxic” each time. In series [3], this compound registered a CC50 at 96 h of more than 50 µM. Also, the figures for the IC50 in the series on THP-1 and with dengue virus type 2 were more than 50 µM and 82.7 µM, respectively. The result in the series with Hepatitis C virus was inactive.
Regarding `OC[C@H]1O[C@@H](n2c3ccc(-c4ccccc4)cc3c3c(-c4ccco4)ncnc32)[C@H](O)[C@@H]1O`, the Activity result with HeLa [1], in the series on HL-60 [2], with HeLa [4], in the series on CCRF-CEM [5], in the series on HL-60 [6] and in the series on CCRF-CEM [7] was “Non-toxic” throughout. This compound returned a CC50 at 96 h in [3] of 20.7 µM. The IC50 with THP-1 stood at 41.3 µM; with dengue virus type 2, 2.91 µM. Moreover, the outcome in the series on Hepatitis C virus was inactive.
`OC[C@H]1O[C@@H](n2c3ccc(Cl)cc3c3c(-c4ccsc4)ncnc32)[C@H](O)[C@@H]1O`: the Activity entry in the series with HeLa [1], in the series on HL-60 [2], in the series on HeLa [4], in the series on CCRF-CEM [5], in the series with HL-60 [6] and in the series with CCRF-CEM [7] was “Non-toxic” in each case. In addition, in series [3], the CC50 at 96 h was more than 50 µM. The IC50 with THP-1 was more than 50 µM; in the series with dengue virus type 2 it was 87 µM. Further, in the series with Hepatitis C virus, the result was inactive.
With `OC[C@H]1O[C@@H](n2c3ccc(Cl)cc3c3c(-c4ccco4)ncnc32)[C@H](O)[C@@H]1O`, the Activity result with HeLa [1], in the series with HL-60 [2], in the series on HeLa [4], in the series with CCRF-CEM [5], in the series with HL-60 [6] and in the series on CCRF-CEM [7] was “Non-toxic” in each case. Moreover, in [3], the cytotoxic concentration (CC50) at 96 h was 0.175 µM. The results for the IC50 in the series with THP-1 and with dengue virus type 2 were 1.56 µM and 0.238 µM, respectively. For the same compound, the result in the series with Hepatitis C virus was inactive.
Consider `OC[C@H]1O[C@@H](n2c3ccc(-c4ccoc4)cc3c3c(-c4ccco4)ncnc32)[C@H](O)[C@@H]1O`, for which the Activity result in the series with HeLa [1], in the series with HL-60 [2], in the series on HeLa [4], in the series with CCRF-CEM [5], in the series with HL-60 [6] and with CCRF-CEM [7] was “Non-toxic” each time. The compound also displayed a CC50 at 96 h in series [3] of 33.1 µM. Besides, the IC50 in the series on THP-1 was found to be 45 µM; in the series with dengue virus type 2, 32.1 µM. The outcome in the series with Hepatitis C virus was inactive.
For the compound `OC[C@H]1O[C@@H](n2c3ccc(Cl)cc3c3c(-c4ccccc4)ncnc32)[C@H](O)[C@@H]1O`, the Activity result in the series with HeLa [1], in the series with HL-60 [2], in the series with HeLa [4], in the series with CCRF-CEM [5], in the series on HL-60 [6] and in the series on CCRF-CEM [7] was “Non-toxic” each time. Besides, in [3], the CC50 at 96 h was more than 50 µM. Also, the results for the IC50 in the series on THP-1 and in the series with dengue virus type 2 were more than 50 µM and 26.4 µM, respectively. The result in the series on Hepatitis C virus was inactive.
On to `OC[C@H]1O[C@@H](n2c3ccc(Cl)cc3c3c(-c4cc5ccccc5o4)ncnc32)[C@H](O)[C@@H]1O`, for which the Activity entry with HeLa [1], in the series on HL-60 [2], in the series with HeLa [4], in the series on CCRF-CEM [5], with HL-60 [6] and with CCRF-CEM [7] was “Non-toxic” each time. In addition, in [3], the CC50 at 96 h was more than 50 µM. Further, the IC50 is more than 50 µM in the series on THP-1 and 0.976 µM in the series with dengue virus type 2. In the series on Hepatitis C virus, the outcome was inactive.
In the case of `OC[C@H]1O[C@@H](n2c3ccc(Cl)cc3c3c(-c4ccoc4)ncnc32)[C@H](O)[C@@H]1O`, the Activity entry in the series with HeLa [1], with HL-60 [2], in the series on HeLa [4], in the series on CCRF-CEM [5], with HL-60 [6] and with CCRF-CEM [7] was “Non-toxic” throughout. Further, the CC50 at 96 h in [3] is more than 50 µM. Further, the values for the IC50 in the series on THP-1 and in the series with dengue virus type 2 were more than 50 µM and 24.4 µM, respectively. For the same compound, in the series with Hepatitis C virus, the outcome was inactive.
On to `OC[C@H]1O[C@@H](n2c3ccc(Cl)cc3c3c(-c4cccs4)ncnc32)[C@H](O)[C@@H]1O`, for which the Activity entry in the series on HeLa [1], in the series on HL-60 [2], with HeLa [4], in the series on CCRF-CEM [5], in the series with HL-60 [6] and with CCRF-CEM [7] was “Non-toxic” each time. In addition, the CC50 at 96 h in series [3] turned out to be 19.9 µM. The IC50 amounted to 45.9 µM in the series with THP-1 and 0.335 µM in the series with dengue virus type 2. Also, the outcome with Hepatitis C virus was inactive.
As to `OC[C@H]1O[C@@H](n2c3ccc(-c4ccco4)cc3c3c(-c4ccco4)ncnc32)[C@H](O)[C@@H]1O`, the Activity result with HeLa [1], in the series with HL-60 [2], in the series on HeLa [4], in the series with CCRF-CEM [5], with HL-60 [6] and in the series on CCRF-CEM [7] was “Non-toxic” each time. In series [3], this compound displayed a CC50 at 96 h of 7.44 µM. For the same compound, the results for the IC50 in the series on THP-1 and in the series with dengue virus type 2 were more than 50 µM and 17.9 µM, respectively. Besides, the result in the series on Hepatitis C virus was inactive.
